Data as given in patent publication US8552183B2, “Process for the covalent coupling of two molecules by means of a diels-alder reaction with inverse electron requirement” (Deutsches Krebsforschungszentrum Stiftung des Offentlichen …, priority 2006, dated 2013).

Assays:
Type in all cases: physicochemical
[1] = DARinv of a methylene-group dienophile, reaction time; conditions: room temperature; reacts very slowly
Experimental: A twofold substituted double bond as occurring in fatty acids or lipids, only reacts very slowly under normal conditions in the sense of DARinv. A methylene group, such as in the perilla alcohol, also reacts very slowly at room temperature (60 hours) in the sense of the DARinv thereby forming the expected adduct. However, as soon as a double bond is integrated within a carbocyclic ring system, it reacts much more rapidly than dienophile, the reactivity decreasing with increasing ring size, starting with the cyclopropene, and passing through a minimum with cyclohexene. In ring systems greater than seven rings, triple bonds can also react as inverse dienophiles.

[2] = DARinv kinetic measurement, tetrazines with dienophile 27
Experimental: (§1) Exploratory kinetic DARinv measurements for the produced dienes and dienophiles show the expected broad reaction behavior.
(§2) Legend: rate constants for the reaction for the reaction DARinv of dienes with dienophiles in liter mol^−1s^−1; n.d. means not yet measured. n.d(+) means: reaction is carried out, however, is too slow for the measurements, DAR adduct is characterized.
(§3) The conduction is very simple since the tetrazines have an absorption maximum of sufficient intensity at 520 nm whose reduction can be very well traced by means of photometry. The kinetic analysis supplies a rate law of second order.

[3] = DARinv kinetic measurement, tetrazines with dienophile 28 (photometry at 520 nm); conditions: second order
Experimental: as §1, §2, §3

[4] = DARinv kinetic measurement, tetrazines with dienophile 16; conditions: second order
Experimental: as §1, §2, §3

[5] = DARinv kinetic measurement, tetrazines with dienophile 26; conditions: second order
Experimental: as §1, §2, §3

[6] = DARinv kinetic measurement, tetrazines with dienophile 13 (Reppe-ester); conditions: second order
Experimental: as §1, §2, §3

[7] = DARinv kinetic measurement, tetrazines with dienophile 17; conditions: second order
Experimental: as §1, §2, §3

[8] = DARinv kinetic measurement, tetrazines with dienophile 14; conditions: second order
Experimental: as §1, §2, §3

[9] = with dienophile 27, lower part of Table 2 (drawing 12)
[10] = with dienophile 27, upper part of Table 2 (drawing 3)

C=C(C)[C@@H]1CC=C(CO)CC1 [perilla alcohol]
reaction time of DARinv forming the expected adduct [1]: 60 h

O=C(NCCO)c1nnc(C(=O)NCCO)nn1
rate constant k of DARinv [2, 9]: 0.008 M⁻¹ s⁻¹ | rate constant k of DARinv [2, 10]: 0.0067 M⁻¹ s⁻¹ | rate constant k of DARinv [3]: 0.023 L/mol/s | rate constant k of DARinv [4]: 0.11 M⁻¹ s⁻¹ | rate constant k of DARinv [5]: 0.0053 L/mol/s | rate constant k of DARinv [6]: 0.2 M⁻¹ s⁻¹ | rate constant k of DARinv [7]: 0.06 M⁻¹ s⁻¹ | rate constant k of DARinv [8]: 0.69 M⁻¹ s⁻¹

COC(=O)CNC(=O)c1nnc(C(=O)N(C)C)nn1
rate constant k of DARinv [3]: <10^−4 liter mol^−1s^−1 | rate constant k of DARinv [5]: <10^−4 liter mol^−1s^−1 | rate constant k of DARinv [6]: 0.014 M⁻¹ s⁻¹

COC(=O)CNC(=O)c1nnc(C(=O)NCC(=O)OC)nn1
rate constant k of DARinv [2, 9]: 0.0073 M⁻¹ s⁻¹ | rate constant k of DARinv [2, 10]: 0.0069 M⁻¹ s⁻¹ | rate constant k of DARinv [3]: 0.028 L/mol/s | rate constant k of DARinv [4]: 0.44 M⁻¹ s⁻¹ | rate constant k of DARinv [5]: 0.0056 L/mol/s | rate constant k of DARinv [6]: 0.028 M⁻¹ s⁻¹ | rate constant k of DARinv [7]: 0.18 M⁻¹ s⁻¹ | rate constant k of DARinv [8]: 0.048 M⁻¹ s⁻¹

COC(=O)c1nnc(C(=O)OC)nn1
rate constant k of DARinv [2, 9]: 0.0048 M⁻¹ s⁻¹ | rate constant k of DARinv [2, 10]: 0.0036 M⁻¹ s⁻¹ | rate constant k of DARinv [3]: 0.022 L/mol/s | rate constant k of DARinv [4]: 0.44 M⁻¹ s⁻¹ | rate constant k of DARinv [5]: 0.0028 L/mol/s | rate constant k of DARinv [6]: 3.4 M⁻¹ s⁻¹ | rate constant k of DARinv [7]: 0.13 M⁻¹ s⁻¹ | rate constant k of DARinv [8]: 1.63 M⁻¹ s⁻¹
